This note sets out measurements from US10610520B2, “Heterocyclic compound” (Takeda Pharmaceutical Company Limited, priority 2016, dated 2020).

The assay addresses T1, His-hMAGL (recombinant polyhistidine tagged human MAGL protein) (Homo sapiens, UniProt Q99685).
T1 construct: made in house; host or cells: E. coli BL21(DE3)
T1 sequence (Q99685 1-303): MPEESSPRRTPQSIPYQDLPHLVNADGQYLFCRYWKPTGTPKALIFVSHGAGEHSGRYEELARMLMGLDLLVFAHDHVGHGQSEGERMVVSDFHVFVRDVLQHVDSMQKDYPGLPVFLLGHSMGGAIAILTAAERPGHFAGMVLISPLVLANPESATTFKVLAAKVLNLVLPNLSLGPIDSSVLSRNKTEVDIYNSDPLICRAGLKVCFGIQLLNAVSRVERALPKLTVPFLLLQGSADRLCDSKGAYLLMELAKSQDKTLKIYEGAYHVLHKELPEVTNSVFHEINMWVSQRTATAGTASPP
Briefly: Measurement of MAGL inhibitory activity (arachidonic acid production from 2-arachidonylglycerol, RapidFire-mass spectrometry). The settings on record: MAGL inhibitory rate, test compound 10 μM, 60 min preincubation, 2-arachidonylglycerol substrate. The assay is classed as biochemical. How it is done:
The His-hMAGL obtained above was diluted with enzyme reaction buffer (10 mM Tris-HCl, pH 7.5, 1 mM EDTA, 0.025 (w/v) % Triton X-100, 0.01% Bovine serum albumin) to a concentration of 7.5 ng/mL. […] Thereafter, to each well was added 5 μL of 150 μM 2-arachidonylglycerol (Tocris Bioscience), and the mixture was incubated at room temperature for 10 min. Then, 10 μL of 2% formic acid (Wako Pure Chemical Industries, Ltd.) was added to stop the reaction. Furthermore, acetonitrile (50 μL) containing 3 μM arachidonic acid-d8 (Cayman Chemical Company) was added and the mixture was stirred.
The amount of arachidonic acid in the obtained enzyme reaction mixture was calculated by measuring by RapidFire-mass spectrometry and correcting by the amount of arachidonic acid-d8. High Throughput online solid phase extraction was performed using RapidFire 300™ system (Agilent Technologies, Inc.). Samples were loaded on SPE C4 cartridge (Agilent Technologies, Inc.) and desalted with 0.2 (v/v) % acetic acid (Wako Pure Chemical Industries, Ltd.) in ultrapure water/acetonitrile (70/30, v/v) at a flow rate of 1.5 mL/min, eluted at a flow rate of 0.5 mL/min with 0.2 (v/v) % acetic acid dissolved in acetonitrile/ultrapure water (90/10, v/v), and injected into the mass spectrometry part. The injection needle was washed with ultrapure water (500 millisecond) and acetonitrile (500 millisecond) to minimize carry-over. […] The RapidFire300 system was controlled by RapidFire UI software version 3.6 (Agilent Technologies, Inc.).
The mass spectrometry of the resultant product was performed using API4000™ triple quadrupole mass spectrometer (AB SCIEX) equipped with an electrospray ion sauce (TurboIon Spray™) in a negative selected reaction monitoring (SRM) mode. The conditions of SRM are shown below. The parameters of the instrument were optimized as follows: capillary temperature 600° C., ion spray voltage −4.5 kV, collision gas 8, curtain gas 15 psi, ion source gas 1 60 psi, ion source gas 2 60 psi. The mass spectrometer was controlled by Analyst™ software version 1.5.1 (AB SCIEX). The peak area integration was analyzed using RapidFire integrator software version 3.6 (Agilent Technologies, Inc.).
MAGL inhibitory rate (%) was calculated according to the following calculation formula. (1-(arachidonic acid production amount of test compound addition group−arachidonic acid production amount of enzyme-free group)÷(arachidonic acid production amount of test compound-free group−arachidonic acid production amount of enzyme-free group))×100

For the molecule `O=C1NC2(CO1)CN(C(=O)[C@H]1C[C@@H](OCc3ccc(C(F)(F)F)cc3F)C1)C2` (stereo in doubt) [Example 355, 2-((cis-3-((2-fluoro-4-(trifluoromethyl)benzyl)oxy)cyclobutyl)carbonyl)-7-oxa-2,5-diazaspiro[3.4]octan-6-one], under “10 µM”, the “% inhibition (10 μM)” value was 99%. For `CC1(C2CCN(C(=O)N3CC4(CCC(=O)N4)C3)CC2)Cc2ccccc2O1` (stereo not shown) [Example 2, 2-((4-(2-methyl-2,3-dihydro-1-benzofuran-2-yl)piperidin-1-yl)carbonyl)-2,5-diazaspiro[3.4]octan-6-one], the inhibition at 10 µM was 100%.

In the case of `O=C1CCC2(CN(C(=O)N3CCC(COc4ccc(C(F)(F)F)cc4Cl)CC3)C2)N1` [Example 3, 2-((4-((2-chloro-4-(trifluoromethyl)phenoxy)methyl)piperidin-1-yl)carbonyl)-2,5-diazaspiro[3.4]octan-6-one], the inhibition at 10 µM amounted to 102%.

For the molecule `CC(Oc1ccc(F)cc1Cl)C1CN(C(=O)N2CC3(CCC(=O)N3)C2)C1` (stereo not shown) [Example 4, 2-((3-(1-(2-chloro-4-fluorophenoxy)ethyl)azetidin-1-yl)carbonyl)-2,5-diazaspiro[3.4]octan-6-one], the inhibition at 10 µM was 98%. Same read-out and setting: the result for `O=C1CCC2(CN(C(=O)c3ccc(COc4ccccc4C(F)(F)F)cc3)C2)N1` [Example 5, 2-(4-((2-(trifluoromethyl)phenoxy)methyl)benzoyl)-2,5-diazaspiro[3.4]octan-6-one] reads 99%. Regarding `O=C1CCC2(CN(C(=O)c3ccc(OCc4ccccc4)cc3)C2)N1` [Example 6, 2-(4-(benzyloxy)benzoyl)-2,5-diazaspiro[3.4]octan-6-one], the inhibition at 10 µM was found to be 87%. Take `CC(Oc1ccc(F)cc1Cl)C1CCN(C(=O)N2CC3(CCC(=O)N3)C2)CC1` (stereo not shown) [Example 7, 2-((4-(1-(2-chloro-4-fluorophenoxy)ethyl)piperidin-1-yl)carbonyl)-2,5-diazaspiro[3.4]octan-6-one]: the inhibition at 10 µM amounted to 103%. As for `O=C1CCC2(CN(C(=O)N3CC(COc4ccc(C(F)(F)F)cc4F)C3)C2)N1` [Example 8, 2-((3-((2-fluoro-4-(trifluoromethyl)phenoxy)methyl)azetidin-1-yl)carbonyl)-2,5-diazaspiro[3.4]octan-6-one], the inhibition at 10 µM came out at 100%. In the case of `O=C1CCC2(CN(C(=O)N3CC(OCc4ccc(C(F)(F)F)cc4F)C3)C2)N1` [Example 9, 2-((3-((2-fluoro-4-(trifluoromethyl)benzyl)oxy)azetidin-1-yl)carbonyl)-2,5-diazaspiro[3.4]octan-6-one], the inhibition at 10 µM amounted to 98%. For `CC(Oc1ccc(C(F)(F)F)cc1F)C1CN(C(=O)N2CC3(CCC(=O)N3)C2)C1` (stereo not shown) [Example 10, 2-((3-(1-(2-fluoro-4-(trifluoromethyl)phenoxy)ethyl)azetidin-1-yl)carbonyl)-2,5-diazaspiro[3.4]octan-6-one], the inhibition at 10 µM was found to be 101%.

With `O=C1CCC2(CN(C(=O)c3ccc(-c4ccccc4)cc3)C2)N1` [Example 12, 2-(biphenyl-4-ylcarbonyl)-2,5-diazaspiro[3.4]octan-6-one], the inhibition at 10 µM was 92%. For `O=C1CCC2(CN(C(=O)c3ccc4nc(-c5ccc(F)cc5)oc4c3)C2)N1` [Example 13, 2-((2-(4-fluorophenyl)-1,3-benzoxazol-6-yl)carbonyl)-2,5-diazaspiro[3.4]octan-6-one], the inhibition at 10 µM came to 89%. On the same count and under the same terms, the result for `O=C1CCC2(CN(C(=O)c3ccc4c(ccn4-c4ccc(C(F)(F)F)cn4)c3)C2)N1` [Example 14, 2-((1-(5-(trifluoromethyl)pyridin-2-yl)-1H-indol-5-yl)carbonyl)-2,5-diazaspiro[3.4]octan-6-one] reads 96%.

In the case of `O=C1CCC2(CN(C(=O)N3CC(COc4ccc(Br)cc4F)C3)C2)N1` [Example 16, 2-((3-((4-bromo-2-fluorophenoxy)methyl)azetidin-1-yl)carbonyl)-2,5-diazaspiro[3.4]octan-6-one], the inhibition at 10 µM was 104%. On to `O=C1CCC2(CN(C(=O)N3CC(COc4ccc(C(F)(F)F)cc4Cl)C3)C2)N1` [Example 17, 2-((3-((2-chloro-4-(trifluoromethyl)phenoxy)methyl)azetidin-1-yl)carbonyl)-2,5-diazaspiro[3.4]octan-6-one], for which the inhibition at 10 µM is 98%. The same measure, in the same setting: the result for `O=C1CCC2(CN(C(=O)N3CC(COc4ccc5c(c4)CCCC5)C3)C2)N1` [Example 18, 2-((3-((5,6,7,8-tetrahydronaphthalen-2-yloxy)methyl)azetidin-1-yl)carbonyl)-2,5-diazaspiro[3.4]octan-6-one] reads 100%; that for `O=C1CCC2(CN(C(=O)N3CC(COc4ccc5c(c4)CCC5)C3)C2)N1` [Example 19, 2-((3-((2,3-dihydro-1H-inden-5-yloxy)methyl)azetidin-1-yl)carbonyl)-2,5-diazaspiro[3.4]octan-6-one], 102%; that for `O=C1CCC2(CN(C(=O)c3sc4cc(C(F)(F)F)ccc4c3Cl)C2)N1` [Example 20, 2-((3-chloro-6-(trifluoromethyl)-1-benzothiophen-2-yl)carbonyl)-2,5-diazaspiro[3.4]octan-6-one], 104%. Still for that read-out and setting: the result for `Cc1ccc(OCC2CN(C(=O)N3CC4(CCC(=O)N4)C3)C2)c(Cl)c1` [Example 21, 2-((3-((2-chloro-4-methylphenoxy)methyl)azetidin-1-yl)carbonyl)-2,5-diazaspiro[3.4]octan-6-one] reads 102%; that for `O=C1CCC2(CN(C(=O)N3CC(COc4ccc(C(F)(F)F)c(F)c4)C3)C2)N1` [Example 22, 2-((3-((3-fluoro-4-(trifluoromethyl)phenoxy)methyl)azetidin-1-yl)carbonyl)-2,5-diazaspiro[3.4]octan-6-one], 100%. `Cc1cc(F)ccc1-c1ccc(OCC2CN(C(=O)N3CC4(CCC(=O)N4)C3)C2)c(F)c1` [Example 23, 2-((3-(((3,4′-difluoro-2′-methylbiphenyl-4-yl)oxy)methyl)azetidin-1-yl)carbonyl)-2,5-diazaspiro[3.4]octan-6-one]: the inhibition at 10 µM amounted to 102%. Regarding `O=C1CCC2(CN(C(=O)N3CC(COc4cc(Br)c(C(F)(F)F)cc4F)C3)C2)N1` [Example 24, 2-((3-((5-bromo-2-fluoro-4-(trifluoromethyl)phenoxy)methyl)azetidin-1-yl)carbonyl)-2,5-diazaspiro[3.4]octan-6-one], the inhibition at 10 µM was 103%. On the same count and under the same terms, in the case of `O=C1CCC2(CN(C(=O)[C@H]3C[C@@H](COc4ccc(F)cc4Cl)C3)C2)N1` [Example 25, 2-((cis-3-((2-chloro-4-fluorophenoxy)methyl)cyclobutyl)carbonyl)-2,5-diazaspiro[3.4]octan-6-one] it was 91%. On to `O=C1CCC2(CN(C(=O)[C@H]3C[C@H](COc4ccc(F)cc4Cl)C3)C2)N1` [Example 26, 2-((trans-3-((2-chloro-4-fluorophenoxy)methyl)cyclobutyl)carbonyl)-2,5-diazaspiro[3.4]octan-6-one], for which the inhibition at 10 µM was determined as 98%. `O=C1CCC2(CN(C(=O)c3cccc(C(F)(F)c4ccccc4)c3)C2)N1` [Example 27, 2-(3-(difluoro(phenyl)methyl)benzoyl)-2,5-diazaspiro[3.4]octan-6-one]: the inhibition at 10 µM is 94%.

Regarding `O=C1CCC2(CN(C(=O)c3ccc(C(F)(F)c4ccccc4)cc3)C2)N1` [Example 28, 2-(4-(difluoro(phenyl)methyl)benzoyl)-2,5-diazaspiro[3.4]octan-6-one], the inhibition at 10 µM was determined as 97%. On to `O=C1CCC2(CN(C(=O)N3CCC(C(F)(F)c4ccc(F)cc4)CC3)C2)N1` [Example 29, 2-((4-(difluoro(4-fluorophenyl)methyl)piperidin-1-yl)carbonyl)-2,5-diazaspiro[3.4]octan-6-one], for which the inhibition at 10 µM came to 98%. As to `O=C1CCC2(CN(C(=O)c3cc4ccc(C(F)(F)F)cc4s3)C2)N1` [Example 30, 2-((6-(trifluoromethyl)-1-benzothiophen-2-yl)carbonyl)-2,5-diazaspiro[3.4]octan-6-one], the inhibition at 10 µM came to 94%.

By inhibition is commonly meant the relative decrease from the control value, in per cent.
